Target: α4β2 nicotinic receptor (α4 subunit) (Homo sapiens, UniProt P17787+P43681, P17787:INS355ER/P17787:DEL356-441/P43681:INS364ER/P43681:DEL365-581)

`CN1CCC[C@H]1c1cccnc1` [nicotine] was tested, and the “X-ray co-crystal structure at 3.9 Å” value was “Nicotine binds in the classical neurotransmitter site at the α-β interface, almost fully buried from solvent”.
